{"source": "paper PMC9065678", "about": "“BI 1015550 is a PDE4B Inhibitor and a Clinical Drug Candidate for the Oral Treatment of Idiopathic Pulmonary Fibrosis” (Frontiers in Pharmacology, 2022)", "key": {"Suncus murinus": {"system": "Suncus murinus", "assay": "Determination of emesis in male Suncus murinus", "format": "in vivo", "experimental": "All animals (50–55 g) were dosed orally by gavage immediately before transfer to whole-body plethysmography boxes. The volume of application was set to 10 mL/kg body weight. For assessment of the emetic events, animals were placed in the whole-body plethysmography boxes without any access to feed or water for 3 h. The whole-body plethysmography system used to detect emetic events consisted of five major components: 1) plethysmography boxes for mice (Buxco®, PLY 3211-F, Data Sciences International, New Brighton, MN, United States), 2) a pressure transducer with an amplifier, 3) a bias flow regulator, 4) a PC-based system to receive and process the amplified signals, and 5) a PC-based data acquisition system (NOTOCORD-hem™, Instem, Stone, United Kingdom) to process signals, as well as in-house-developed software to detect and identify changes in breathing pattern. Retching and vomiting induced characteristic changes in the breathing pattern of animals and these were recorded by whole-body plethysmography and translated for NOTOCORD recording. A number of preset definitions (computer-based criteria) characteristic for emetic events were determined. Peaks that met the set internal computer-based criteria and exceeded the threshold of more than 600 mV were labeled as emetic events by the system on a standard basis."}, "PDE1C": {"molecular_target": "T1, PDE1C (Homo sapiens, UniProt Q14123)", "T1 construct": "the full-length open reading frames of PDE1C; made in house; host or cells: SF9 insect cells (baculovirus, Bac-To-Bac, pFastbac)", "T1 sequence (Q14123 whole entry)": "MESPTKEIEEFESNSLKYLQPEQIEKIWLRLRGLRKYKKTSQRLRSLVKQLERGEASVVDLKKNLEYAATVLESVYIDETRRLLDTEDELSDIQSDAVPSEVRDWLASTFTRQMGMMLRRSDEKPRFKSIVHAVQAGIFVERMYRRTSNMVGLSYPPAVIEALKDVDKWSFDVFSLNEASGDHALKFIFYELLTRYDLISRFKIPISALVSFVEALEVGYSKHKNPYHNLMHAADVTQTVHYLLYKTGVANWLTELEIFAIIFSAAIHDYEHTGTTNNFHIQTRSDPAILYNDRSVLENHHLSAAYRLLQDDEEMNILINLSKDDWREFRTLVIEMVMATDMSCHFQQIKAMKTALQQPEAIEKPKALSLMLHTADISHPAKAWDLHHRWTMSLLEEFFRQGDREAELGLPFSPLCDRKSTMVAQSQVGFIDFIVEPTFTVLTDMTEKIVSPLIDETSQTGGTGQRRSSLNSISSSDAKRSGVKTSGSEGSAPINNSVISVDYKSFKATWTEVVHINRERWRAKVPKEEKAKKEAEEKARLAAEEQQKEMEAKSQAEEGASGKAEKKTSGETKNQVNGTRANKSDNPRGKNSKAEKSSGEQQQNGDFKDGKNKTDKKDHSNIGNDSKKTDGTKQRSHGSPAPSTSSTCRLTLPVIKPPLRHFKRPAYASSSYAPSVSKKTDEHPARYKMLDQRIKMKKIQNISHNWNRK", "assay": "Recombinant PDE activity, scintillation proximity assay: PDE1C", "format": "biochemical", "from_the_text": "For the preparation of human recombinant PDEs of interest, the Bac-To-Bac baculoviral expression system from Invitrogen (Carlsbad, CA, United States) was used according to the instruction manual. In short, the full-length open reading frames of PDE1C (National Center for Biotechnology Information Gene-Ref-Seq identifier NG_051183), PDE3A (NG_030033), PDE4A (NG_029594, AA 156–886), PDE4C (NG_029629), PDE7A (NG_029614), and PDE9A (NG_047067) were cloned into the plasmid vector pFastbac. For PDE4B and PDE4D, active site fragments were used (PDE4B NG_029038: AA 152–484, PDE4D NG_027957, AA 79–438). The plasmids were transformed into DH10Bac bacteria, SF9 insect cells were transfected with the bacmid DNA, and the resulting baculoviruses were stored and used for further rounds of infections. […] The protein content was measured and an equal volume of 87% (v/v) glycerol was added prior to freezing at −20°C. […] The reaction was stopped by addition of 50 µL of yttrium silicate scintillation proximity assay beads (17.8 mg/mL, 18 mM zinc sulfate in H2O) and the amount of produced [^3H]AMP/[^3H]GMP associated was determined using a Wallac Microbeta scintillation counter. […]"}, "[1]": {"system": "phytohemagglutinin P-induced IL-2 release", "assay": "Phytohemagglutinin P-induced IL-2 release in human PBMCs", "format": "cell-based", "settings": "10 µg/mL PHA-P for 20 h", "experimental": "(§1) Blood was donated by internal donors at the Center for Occupational Health at Boehringer Ingelheim in Biberach an der Riss, Germany; the donors provided signed informed consent that allows use for scientific purposes. All research was performed in accordance with the principles stated in the Declaration of Helsinki. Ethical approval was provided by the Federal State Medical Association of Baden-Württemberg, reference no. F-2016–121. For preparation of peripheral blood mononuclear cells (PBMCs), 200 mL freshly drawn human blood from healthy donors was mixed with 50 mL acid-citrate-dextrose solution (38 mmol/L citric acid, 75 mmol/L tri-sodium citrate and 121 mmol/L glucose) and 50 mL Hanks buffered saline solution (Thermo Fisher Scientific, Carlsbad, CA, United States), overlaid on Ficoll and centrifuged for 30 min at 300 x g. PBMCs were diluted in RPMI-1640 medium (Thermo Fisher Scientific) containing 6% (v/v) autologous plasma to a concentration of 5 × 10^6 cells/mL. […] Supernatants were taken and cytokines measured by enzyme-linked immunosorbent assay (ELISA; Becton Dickinson, Franklin Lakes, NJ, United States)."}, "PDE2A": {"molecular_target": "T2, PDE2A (Homo sapiens, UniProt O00408)", "T2 construct": "Eurofins Cerep", "T2 sequence (O00408 whole entry)": "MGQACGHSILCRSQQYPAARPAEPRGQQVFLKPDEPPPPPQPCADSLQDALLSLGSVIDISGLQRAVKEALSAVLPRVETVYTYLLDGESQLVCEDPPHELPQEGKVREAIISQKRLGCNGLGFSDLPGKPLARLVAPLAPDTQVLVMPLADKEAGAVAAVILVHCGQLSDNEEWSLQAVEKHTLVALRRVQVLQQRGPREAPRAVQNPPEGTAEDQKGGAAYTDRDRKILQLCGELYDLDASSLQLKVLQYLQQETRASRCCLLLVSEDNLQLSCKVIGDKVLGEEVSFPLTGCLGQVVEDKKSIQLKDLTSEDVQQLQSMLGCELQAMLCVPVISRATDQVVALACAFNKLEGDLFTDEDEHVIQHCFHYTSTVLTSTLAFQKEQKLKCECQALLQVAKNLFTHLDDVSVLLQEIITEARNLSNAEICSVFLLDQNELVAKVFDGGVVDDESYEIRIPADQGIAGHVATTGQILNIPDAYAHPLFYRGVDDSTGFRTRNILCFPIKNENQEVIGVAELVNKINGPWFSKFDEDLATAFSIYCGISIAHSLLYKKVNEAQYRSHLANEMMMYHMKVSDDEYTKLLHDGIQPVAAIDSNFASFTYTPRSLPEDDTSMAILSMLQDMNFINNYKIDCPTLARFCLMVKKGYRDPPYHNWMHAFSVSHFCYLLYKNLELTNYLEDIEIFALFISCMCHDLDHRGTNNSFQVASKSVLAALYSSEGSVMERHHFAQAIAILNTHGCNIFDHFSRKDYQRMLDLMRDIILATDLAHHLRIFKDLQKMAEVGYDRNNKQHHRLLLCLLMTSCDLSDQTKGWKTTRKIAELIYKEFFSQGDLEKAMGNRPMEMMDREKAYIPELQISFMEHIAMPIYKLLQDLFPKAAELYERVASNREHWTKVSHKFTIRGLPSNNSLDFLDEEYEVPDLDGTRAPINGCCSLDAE", "assay": "PDE2A inhibition screen at Eurofins Cerep", "format": "biochemical", "settings": "screened at Eurofins Cerep"}, "[2]": {"system": "LPS-induced TNF-α release", "assay": "LPS-induced TNF-α release in human PBMCs", "format": "cell-based", "settings": "100 ng/mL LPS for 4 h", "experimental": "as §1"}, "[3]": {"system": "LPS-stimulated TNF-α release", "assay": "LPS-induced TNF-α release in rat whole blood", "format": "cell-based", "settings": "LPS 10 µg/mL", "experimental": "Heparinized whole blood was collected from the Aorta abdominalis of WI (Han) male rats (Charles River Laboratories, Sulzfeld, Germany) and from healthy male human donors, and treated with 1 µL (rat) or 2.5 µL (human) of BI 1015550 or vehicle [final DMSO concentration 0.5% (v/v)]. Final assay volumes were 200 μL (rat) and 500 μL (human). After incubation for 30 min at 37°C, 95% humidity, and 5% CO2, cultures were treated with LPS [final concentration 10 µg/mL (rat), 0.1 µg/mL (human)] or saline. After 7 h, plates were centrifuged at 3.200 × g at 4°C for 10 min and plasma was used for cytokine measurement. Meso Scale Discovery (MSD) (Rockville, MD, United States) rat and human pro-inflammatory panels were used for detection of TNF-α and IL-6 in rat plasma [diluted 1:2 (v/v)]) and human plasma [negative control undiluted, other samples diluted 1:200 (v/v)] according to the manufacturer’s instructions."}}, "data": [{"smiles": "[O-][S+]1CCc2nc(N3CCC(c4ncc(Cl)cn4)CC3)nc(NC3(CO)CCC3)c21", "note": "(centres unmarked) [BI 1015550]", "values": [{"measurement": "Animals showing emesis", "setting": "Suncus murinus; 0.5 mg/kg oral, 3 h observation, data not shown", "result": "3 of 24"}, {"measurement": "Mean emetic events per animal", "setting": "Suncus murinus; 0.5 mg/kg oral, data not shown", "result": 0.1}, {"measurement": "Animals showing emesis", "setting": "Suncus murinus; 10 × ED50 oral (BI 1015550 6 mg/kg, roflumilast 10 mg/kg)", "result": "5 out of 24"}, {"measurement": "% of vomiting animals, emesis at 10 × ED50", "setting": "Suncus murinus; oral (BI 1015550 6 mg/kg, roflumilast 10 mg/kg), 24 animals", "result": 21, "unit": "%"}, {"measurement": "IC50", "setting": "PDE1C; substrate cAMP", "result": 46, "unit": "µM"}, {"measurement": "IC50", "setting": "PDE1C; substrate cGMP", "result": 85, "unit": "µM"}, {"measurement": "IC50", "setting": "[1]", "result": 0.009, "unit": "µM"}, {"measurement": "Inhibition of human PDE2A", "setting": "PDE2A", "result": "did not inhibit"}, {"measurement": "IC50", "setting": "[2]", "result": 0.035, "unit": "µM"}, {"measurement": "Extent of inhibition of TNF-α release", "setting": "[3]", "result": "completely inhibited"}, {"measurement": "IC50", "setting": "[3]", "result": 0.091, "unit": "µM"}]}]}
